Reference: article PMC6598759, “In vitro genotoxicity of nitroimidazoles as a tool in the search of new trypanocidal agents” (Memórias do Instituto Oswaldo Cruz, 2019)
Read-outs that look alike come from different tables or passages of the source.

Experiments:
[1] = test system: whole human blood cells (WHBC); conditions: cited from earlier work; for percentage decrease in cell viability: 2 h
[2] = test system: whole human blood cells (WHBC); experiment: In vitro cytokinesis-block micronucleus assay (CBMN) with whole human blood cells
Procedure: In vitro cytokinesis-block micronucleus assay (CBMN) with whole human blood cells (WHBC) - Heparinised WHBC samples were obtained by venipuncture from volunteers as described above. […] WHBC cultures exposed to mitomycin C (MMC) (1.0 µg/mL in water) (Bristol, USA) for 2 h or to N-deacetyl-N-methylcolchicine in water (Demecolcine: Sigma-Aldrich) 0.02 µg/mL for 28 h were used as positive control cultures. After the treatment, the WHBC cultures were centrifuged (900 rpm, 10 min) and washed with 5 mL PBS. […] CytB has cytokinesis-block activity leading to the formation of binucleate cells. […] The fixed cell suspension was dropped on a clean glass slide and the slide was air-dried on a heating plate (60 °C). Air-dried slides were stained with 60 µg/mL acridine orange in Sörensen buffer (0.03 M KH2PO4, 0.03 M Na2HPO4) for 3s, then they were embedded in distilled water and covered with a coverslip. MN showing bright green fluorescence were analysed using a fluorescence microscope at 400 X magnification. MN were scored in 2,000 binucleated cells (BNC) for culture and the number of the micronucleate cells (MNC) in 2,000 BNC was determined. Cytotoxicity was measured using the cytokinesis-block proliferation index (CBPI) and the replication index (RI) which were calculated from 500 cells. The CBPI indicates the average number of nuclei per cell, and may be used to calculate cell proliferation. The RI indicates the relative number of cell cycles per cell during the period of exposure to cytoB in treated cultures compared to control cultures and can be used to calculate the % cytostasis. CBPI was calculated according to the formula: CBPI = [(No. mononucleate cells) + (2 x No. binucleate cells) + (3 x No. multinucleate cells)] / N, where N indicates the total number of cells scored. RI (%) was calculated according to the formula:
RI %=((No. binucleate cells) + (2 x No. multinucleate cells)) ÷ (Total number of cells)T/((No. binucleate cells) + (2 x No. multinucleate cells)) ÷ (Total number of cells)C x 100
where T indicates treated cultures and C control cultures
Cytotoxicity was evidenced in the occurrence of reduction in CBPI or RI of cultures treated by test substances when compared to control cultures. The measurement of cytotoxicity was used to select the concentrations of the test substance to be analysed for the presence of MN. […] However, it was adopted in this work as the maximum concentration in CBMN one that induced a proliferation inhibition not exceeding about 50% established by ICH S2 (R1) for lymphocyte cultures.
The chi-square test for trend was performed to analyse if the increase of MNC was concentration-related.[30]

[3] = test system: whole human blood cells (WHBC); conditions: 149-6,400 µM, 2 h, p > 0.1; cited from earlier work
[4] = test system: bloodstream trypomastigotes form Y strain of T. cruzi; conditions: read-out: IC50/24 h (concentration that produces 50% lysis of the parasites), trypomastigote forms; cited from earlier work

Compound: Cn1c([N+](=O)[O-])cnc1-c1nnc(N)[nH]1 [Compound 4]
- percentage decrease in cell viability ([1]; 149 µM): 1.0%
- percentage decrease in cell viability ([1]; 238 µM): 1.0%
- percentage decrease in cell viability ([1]; 382 µM): 1.0%
- percentage decrease in cell viability ([1]; 610 µM): 0%
- percentage decrease in cell viability ([1]; 1,562 µM): 1.0%
- percentage decrease in cell viability ([1]; 2,500 µM): 1.0%
- percentage decrease in cell viability ([1]; 4,000 µM): 0%
- percentage decrease in cell viability ([1]; 6,400 µM): 0%
- lethality variation range ([1]; 149-6,400 µM, 2 h at 37 °C, compared to solvent-control): 1-4%
- CBPI ([2]; 150 µM, 4 h): 1.220
- NMNC/2000 binucleated cells ([2]; 150 µM, 4 h): 28
- RI (%) ([2]; 150 µM, 4 h): 106%
- CBPI ([2]; 640 µM, 4 h): 1.230
- NMNC/2000 binucleated cells ([2]; 640 µM, 4 h): 36
- RI (%) ([2]; 640 µM, 4 h): 107%
- CBPI ([2]; 1,600 µM, 4 h): 1.218
- NMNC/2000 binucleated cells ([2]; 1,600 µM, 4 h): 44
- RI (%) ([2]; 1,600 µM, 4 h): 76%
- CBPI ([2]; 4,000 µM, 4 h): 1.054
- RI (%) ([2]; 4,000 µM, 4 h): 22%
- CBPI ([2]; 10,000 µM, 4 h): 1.052
- RI (%) ([2]; 10,000 µM, 4 h): 23%
- maximum concentration used in MN analysis (inducing in the maximum 50% reduction of CBPI or RI) ([2]; 4 h, relative to solvent-control): 1,600 μM
- concentrations with significant mutagenic effect (increase of MNC) ([2]; 4 h, p < 0.01 for 3, p < 0.05 for 4 and 7): 1,600 μM
- result in the CBMN ([2]; overall call): clastogenic and/or aneugenic
- DNA strand breaks compared to solvent-control [3]: did not cause DNA strand breaks
- IC50 [4]: 257 ± 53 µM
